The values below come from patent US11407741B2, “Compounds and their use as selective inhibitors of caspase-2” (priority 2017, dated 2022).

Where a SMILES comes first, the peptide text is derived from it. The star is where a group is joined. X2 = O=C(O)C[C@H](N*)C(=O)COc1c(F)cccc1F; Quinaldoyl = O=C(c1ccc2ccccc2n1)*

One assay relates to HeLa cells. The experiment in a line: Protection against vincristine-induced cell death, propidium iodide flow cytometry. The assay is classed as cell-based, human. Set-up: Index of cell death: key to the marks not given beside the values. As to conditions: 20 nM Vincristine for 48 hours, propidium iodide positive cells. Here is the method:
Human HeLa cells are used in this model. HeLa cells (cervical cancer cell line) were obtained from American Type Cell Collection (ATCC), and were cultured in Dulbecco's Modified Eagle Medium (DMEM, High Glucose, GlutaMAX™, Pyruvate) (Gibco, Life technologies), supplemented with 10% FCS and antibiotics (Gibco, Life technologies).
Human HeLa cells are treated with a solution of Vincristine (Sigma Aldrich) (diluted in water at 5 mM). Vincristine works partly by binding to the Tubulin protein, stopping the cell from separating its chromosomes during the metaphase; the cell then undergoes apoptosis through a caspase-dependent process.
Propidium iodide (PI) (Sigma Aldrich) is used to evaluate plasma membrane permeabilisation, a sign of cell death.
24 hours before pharmacological treatment, HeLa cells were plated into 24-well plates. […] Cells were exposed or not (control), to 20 nM Vincristine for 48 hours.
The content of each well is collected is added to PBS and then centrifuged (900 rpm; 5 min).
The pellet obtained is put into 300 μL of a medium comprising propidium iodide and incubated (37° C., 5% CO2) in the dark for 5 minutes and then subjected to flow cytometry analysis.
Fluorescence-Activated Cell Sorting was performed using a FACSCalibur cytometer (Becton Dickinson, San Jose, Calif.). For each sample, data from 5,000 Cells were registered and analyzed with the CellQuest Pro software (Becton Dickinson). Analysis included FSC (Forward Scatter/relating to the cells'size) and SSC (Side Scatter/relating to the cells' granularity) parameters together with FL-1 and FL-3 channel.
The percentage of propidium iodide positive cells gives an estimation of cell death.

In a further assay the target is T1, Caspase-2 (Homo sapiens, UniProt P42575).
T1 construct: the Caspase-2 and Caspase-3 are human recombinant active enzymes; purchased Enzo Life ALX-201-057-U100
T1 sequence (P42575 170-325 limits assumed): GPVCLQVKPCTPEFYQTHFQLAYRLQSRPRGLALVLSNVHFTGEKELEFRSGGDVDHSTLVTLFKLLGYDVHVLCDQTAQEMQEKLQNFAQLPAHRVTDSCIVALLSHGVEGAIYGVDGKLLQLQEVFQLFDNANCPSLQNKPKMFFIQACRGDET
T1 sequence (P42575 348-452 limits assumed): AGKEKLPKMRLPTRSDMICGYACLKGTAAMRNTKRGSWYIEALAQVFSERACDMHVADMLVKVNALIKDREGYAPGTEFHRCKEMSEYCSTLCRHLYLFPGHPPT
Nature of the assay: Caspase-2 inhibition assay for irreversible inhibitors (kinact/KI, continuous method). The assay is classed as biochemical. Here is the method:
(§1) The efficiency of the comparative compound Δ2Me-TRP601, that is an already known group II Caspase inhibitor (inhibitor of Caspase-2, Caspase-3 and Caspase-7), has been assessed by a similar protocol described in Chauvier et al., 2011 Cell Death Dis 2011, 2:e203.
(§2) In this example, the Caspase-2 and Caspase-3 are human recombinant active enzymes that are respectively provided by Enzo Life® (ALX-201-057-U100) and R&D Systems® (707-C3-010/CF).
Caspase-2 is used at a final concentration of 0.1 nM in a “Caspase-2 buffer” containing 20 mM HEPES (pH 7.4), 5 mM DTT, 2 mM EDTA, 0.1% CHAPS and 800 mM succinate. Caspase-3 is used at a final concentration of 0.5 nM in a “Caspase-3 buffer” containing 20 mM HEPES (pH 7.4), 0.1% CHAPS, 5 mM DTT, and 2 mM EDTA.
The peptide substrates used for the enzymatic activity measurements are Ac-DEVD-AMC and Ac-VDVAD-AMC commercialized by EnzoLife® (respectively referenced ALX-260-031-M005 and ALX-260-060-M005). They are fluorogenic due to the presence of their AMC (7-amino-4-methylcoumarin) end group. The releasing of AMC enables to follow the enzymatic activity in fluorescence unit RFU over time in a 96-wells microplate.
The fluorescence values are measured at 37° C. with a spectrofluorometer with a microplate reader BMG FLUOstar OPTIMA. This apparatus is driven by the software Biolise® and is equipped with thermoelectric cooling device by Peltier effect. The mathematical analyses of the experimental data are done with the software Kaleidagraph®.
The inhibitory properties of the tested compounds are evaluated by the determination of the kinact/KI ratio regarding either Caspase-2 or Caspase-3 wherein: • kinact is the maximal inactivation rate constant, and • KI is the dissociation constant according to:
Said ratio is measured according to the continuous method (Allison R D. Curr Protoc Protein Sci. 2001 May; Chapter 3:Unit 3.5.; Chauvier et al., 2011 Cell Death Dis 2:e203; Tan et al., J Med Chem 2015, […]).
Briefly, Caspases activities were determined by monitoring the hydrolysis of fluorogenic substrates (λexc=355 nm, λem=460 nm) as a function of time, in the presence of untreated Caspases (control) or Caspases that had been incubated with a test compound, for 30 min minimum at 37° C. using a BMG Fluostar microplate reader (black 96-well microplates) and the initial velocity (V0) was determined from the linear portion of the progress curve.
Substrates and compounds were previously dissolved in DMSO at 10 mM, with the final solvent concentration kept at lower 4% (v/v). V0, relative velocities, KM and IC50 were determined from experimental data using Mars data Analysis 2.0 and Kaleidagraph softwares.
Inhibitor binding affinity (dissociation constant, KI) and first-order rate constant (k3) parameters were determined for Caspase-2 and Caspase-3 using the progress curve method. The ratio k3/KI was obtained by fitting the experimental data to the equations (F.U., fluorescence unit): […]
A continuous method of determination of the kinact/KI ratio was used for evaluating the inhibitory activity of the tested compounds against Caspase-2 and Caspase-3.
The reaction mixture is prepared by letting the enzyme and the buffer incubate at 37° C.
The tested inhibitory compounds are prepared at different concentrations (¼ IC50; ½ IC50; IC50; 2 IC50; 4 IC50) and put in the microplate.
Then the reaction mixture comprising the enzyme, the buffer and the substrate is rapidly added in the wells.
The activities of the enzyme are measured between 45 and 60 minutes.
The RFU (Relative Fluorescence Units)=f(times) curves are traced for each concentration of tested molecule according to the following equation: ((((−V0)*(exp(−kobs*m0)))+V0)/kobs*)+RFU0
in which: • V0 corresponds to the initial rate (RFU·s^−1) in the concentration of 0 of the tested inhibitory compound; • kobs is the inactivation rate constant; • RFU0 is the fluorescence value at t=0 min; and • m0 is the variable i.e. the inhibitor concentration.

The target of a further assay is T2, Caspase-3 (Homo sapiens, UniProt P42574).
T2 construct: the Caspase-2 and Caspase-3 are human recombinant active enzymes; purchased R&D Systems 707-C3-010/CF
T2 sequence (P42574 29-175 limits assumed): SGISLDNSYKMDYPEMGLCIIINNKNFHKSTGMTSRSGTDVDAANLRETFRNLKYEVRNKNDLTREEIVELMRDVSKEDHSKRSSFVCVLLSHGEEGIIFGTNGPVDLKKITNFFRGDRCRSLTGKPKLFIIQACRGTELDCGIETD
T2 sequence (P42574 176-277 limits assumed): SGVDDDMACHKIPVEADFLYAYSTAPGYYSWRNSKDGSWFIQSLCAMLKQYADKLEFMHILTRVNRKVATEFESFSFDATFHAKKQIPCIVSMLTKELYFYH
Nature of the assay: Caspase-3 inhibition assay for irreversible inhibitors (kinact/KI, continuous method). The assay is classed as biochemical. The conditions noted are these: human recombinant Caspase-3 0.5 nM, 37° C. As for the experimental part:
as §1, §2
Caspase-2 is used at a final concentration of 0.1 nM in a “Caspase-2 buffer” containing 20 mM HEPES (pH 7.4), 5 mM DTT, 2 mM EDTA, 0.1% CHAPS and 800 mM succinate. […]
The peptide substrates used for the enzymatic activity measurements are Ac-DEVD-AMC and Ac-VDVAD-AMC commercialized by EnzoLife® (respectively referenced ALX-260-031-M005 and ALX-260-060-M005). […] The releasing of AMC enables to follow the enzymatic activity in fluorescence unit RFU over time in a 96-wells microplate.
The fluorescence values are measured at 37° C. with a spectrofluorometer with a microplate reader BMG FLUOstar OPTIMA. […]
The inhibitory properties of the tested compounds are evaluated by the determination of the kinact/KI ratio regarding either Caspase-2 or Caspase-3 wherein: • kinact is the maximal inactivation rate constant, and • KI is the dissociation constant according to: […]
The activities of the enzyme are measured between 45 and 60 minutes. […]

Turning to `CC[C@]1(O)C[C@H]2CN(CCc3c([nH]c4ccccc34)[C@@](C(=O)OC)(c3cc4c(cc3OC)N(C=O)[C@H]3[C@@](O)(C(=O)OC)[C@H](OC(C)=O)[C@]5(CC)C=CCN6CC[C@]43[C@@H]65)C2)C1` [Vincristine alone, Vincristine, reference compound], in the assay with HeLa cells, the “Index of cell death” value was “++++”.
`CC(C)[C@H](NC(=O)c1ccc2ccccc2n1)C(=O)N[C@@H](CC(=O)O)C(=O)N[C@H](C(=O)N[C@@H](C)C(=O)N[C@@H](CC(=O)O)C(=O)COc1c(F)cccc1F)C(C)C` [Δ2Me-TRP-601, reference compound] (Quinaldoyl-VDVA-X2): the “Selectivity for Caspase 2” value at Caspase-2 (comparison of kinact/KI ratios regarding caspase 2 and 3) is recorded as “no”. The “k3/KI Casp2” value on Caspase-2 (human recombinant Caspase-2 0.1 nM, 37° C.) is listed as 1 586 020 M^−1 · s^−1. At Caspase-2 (ratio of k3/KI Casp2 to Casp3), the “Selectivity ratio (C2/C3)” value worked out at 0.98. Besides, the “k3/KI Casp3” value at Caspase-3 was 1 613 405 M^−1 · s^−1.
